For assay [1], the system named is NCI-H460 non-microcytoma lung cancer cells. The settings on record: topotecan value reported for comparison, from Dallavalle S. et al., J. Med. Chem., 44, 3264-74, 2001; read-out: IC50 (µM) H-460; cited from earlier work.
Assay [2] shares this test system. Kind of assay: Cytotoxic activity on NCI-H460 cells (sulforodamine B test). Format: cell-based. The following applies: product concentration that inhibits cell survival by 50%; 2 hours incubation with products, then another 72 hours in drug-free medium; optical density at 540 nm; read-out: IC50 (µM) H-460. The method, then:
NCI-H460 non-microcytoma lung cancer cells were kept in RPMI 1640 culture medium containing 10% FCS and 1% glutamine. The cytotoxicity test to analyse the activity of the molecules was performed as follows. The cells were seeded in a volume of 250 µl in 96-well plates and incubated for 2 hours at 37°C with scalar concentrations of the products in a humidified atmosphere containing 5% CO2. At the end of the incubation, the molecules were removed by overturning the plates and adding sterile buffered saline solution (PBS) three times. The RPMI 1640 culture medium containing 10% FCS (200 µl) was added to the wells and the plates were incubated for another 72 hours. At the end of the incubation, the plates were overturned again and dried on paper, before adding 200 µl of PBS and 50 µl of 80% TCA. The plates were incubated again in ice for at least 1 hour. The TCA was removed by overturning the plates and the plates were first dried on paper and then washed three times by immersion in distilled water and overturning. The plates were dried first on paper and then in a thermostatically regulated incubator at 60°C for 10 min. 200 µl of 0.4% sulforodamine B in 1% acetic acid were added to all wells. The plates were incubated at room temperature for another 30 min. The sulforodamine B was removed by overturning, the plates were washed by immersion in 1% acetic acid three times and then dried first on blotting paper and then in the thermostat at 60°C for 10 min. Lastly, 200 µl of Tris base 10 mM were added to all wells and the plates were subjected to stirring for at least 20 min. The optical density was measured with a Multiskan spectrophotometer at 540 nm. Incubation with the products was capable of inhibiting proliferation in a concentration-dependent manner. Table 1 presents the IC50 values (product concentration that inhibits cell survival by 50%]. IC50 values for topotecan have also been reported for comparison purposes (Dallavalle S. et al., J. Med. Chem., 44, 3264-74, 2001). Table 1.

Molecules are shown by their SMILES. Like-named read-outs stand apart in the source and are kept apart here.

Consider `CC[C@@]1(O)C(=O)OCc2c1cc1n(c2=O)Cc2cc3c(CN(C)C)c(O)ccc3nc2-1` [topotecan, 10-hydroxy-9-dimethylaminomethylcamptothecin], for which, in assay [1], the IC50 (commonly the concentration at which inhibition is half-maximal) was 1.38 µM.

Take `CC[C@@]1(O)C(=O)OCc2c1cc1n(c2=O)Cc2cc3c(C=NOC(C)(C)C)c(OC)ccc3nc2-1` [10-OCH3-CPT-9-CH=NOC(CH3)3, 10-methoxy-9-tert-butoxyiminomethylcamptothecin]: the IC50 in assay [2] turned out to be 0.31 µM.

For the compound `CC[C@@]1(O)C(=O)OCc2c1cc1n(c2=O)Cc2cc3c(C=NOC(C)(C)C)cccc3nc2-1` [CPT-9-CH=NOC(CH3)3, 9-tert-Butoxyiminomethylcamptothecin], the IC50 in assay [2] amounted to 0.067 µM.

With `CC[C@@]1(O)C(=O)OCc2c1cc1n(c2=O)Cc2cc3c(C#N)c(OC)ccc3nc2-1` [10-OCH3-CPT-9-CN, 10-Methoxy-9-cyanocamptothecin], in assay [2], the IC50 was 0.27 µM.

In the case of `CC[C@@]1(O)C(=O)OCc2c1cc1n(c2=O)Cc2cc3c(C=NOCCN)cccc3nc2-1` [CPT-9-CH=NOCH2CH2NH2, 9-(2-Aminoethoxy)iminomethylcamptothecin], in assay [2], the IC50 worked out at 2.53 µM.

On to `CC[C@@]1(O)C(=O)OCc2c1cc1n(c2=O)Cc2cc3c(C=NOC(C)(C)C)c(O)ccc3nc2-1` [10-OH-CPT-9-CH=NOC(CH3)3, 10-hydroxy-9-tert-butoxyiminomethylcamptothecin], for which the IC50 in assay [2] stood at 0.35 µM.

The record behind these values is patent publication EP2096113A1, “9-substituted camptothecin derivatives as antitumor compounds” (SIGMA-TAU Industrie Farmaceutiche Riunite S.p.A., priority 2008, dated 2009).
